Measurements reported in ChEMBL document CHEMBL5385892, “Advances in the development of phosphodiesterase-4 inhibitors” (Eur J Med Chem, 2023).

What was measured:
[1] = biological target: T1, Phosphodiesterase isozyme 4 (Homo sapiens, UniProt Q86V67); experiment: Inhibition of PDE4 (unknown origin)
T1 sequence (Q86V67 whole entry): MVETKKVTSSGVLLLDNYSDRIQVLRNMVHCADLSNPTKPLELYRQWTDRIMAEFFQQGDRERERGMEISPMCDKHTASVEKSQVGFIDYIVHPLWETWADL

Phosphodiesterase 3 = Phosphodiesterase 3 (Homo sapiens, UniProt Q14432+Q13370); experiment: Inhibition of PDE3 (unknown origin); type: protein assay

IC50 [1] [nM] | IC50 (Phosphodiesterase 3) [nM] | Structure (SMILES)
0.9 | – | COc1ccc(C2=NN(CCCCCc3ccccc3)C(=O)CC2)cc1OC
26 | – | CCOc1cc(C(CS(C)(=O)=O)N2C(=O)c3csc(NC(C)=O)c3C2=O)ccc1OC (stereo not given)
1480 | 0.4 | O=C(Cc1c(Cl)c[n+]([O-])cc1Cl)c1ccc(OC(F)F)c2c1OC1(CCS(=O)(=O)CC1)O2 [ORISMILAST]
2.8 | – | CNc1nc(-c2cccc(NC(=O)c3ccc(C(=O)OC)cc3)c2)c2cc(OC)c(OC)cc2n1 [LOTAMILAST]
